The values below are quoted from earlier work in PMC12308805, “Ultrahigh-Throughput Virtual Screening Strategies against PPI Targets: A Case Study of STAT Inhibitors” (Journal of Chemical Information and Modeling, 2025).

The subject of the data set is STAT3. Conditions: sheet 6QHD_actives_decoys, retrospective screening set for STAT3 SH2 domain (PDB 6QHD); decoys are presumed inactives, not tested; ref DUD-E; cited from earlier work.
With `COc1cc(-c2ccc(/N=N/c3cc(S(=O)(=O)O)c4ccccc4c3O)c(OC)c2)ccc1/N=N\c1c(S(=O)(=O)O)cc2cc(C(=O)O)c(O)cc2c1O` [Decoy859], the Type entry is “Inactive (Decoy)”.
Consider `CC[C@H](C)[C@H](O)C(=O)O[C@H](C(=O)O[C@H](C(=O)OC[C@@H](O)[C@@H](O)[C@@H](O)[C@@H](O)CO)[C@@H](C)CC)[C@@H](C)CC` [Decoy860], for which the Type entry was “Inactive (Decoy)”.
In the case of `CC[C@H](C)[C@H](O)C(=O)O[C@H](C(=O)O[C@H](C(=O)OC[C@H](O)[C@H](O)[C@H](O)[C@H](O)CO)[C@@H](C)CC)[C@@H](C)CC` [Decoy861], the Type entry was “Inactive (Decoy)”.
With `CC[C@@H](C)[C@H](O)C(=O)O[C@H](C(=O)O[C@H](C(=O)OC[C@@H](O)[C@@H](O)[C@@H](O)[C@@H](O)CO)[C@@H](C)CC)[C@@H](C)CC` [Decoy862], the Type entry is reported as “Inactive (Decoy)”.
In the case of `CC[C@H](C)[C@H](OC(=O)[C@@H](OC(=O)[C@H](O)[C@@H](C)CC)[C@@H](C)CC)C(=O)OC[C@H](O)[C@H](O)[C@H](O)[C@H](O)CO` [Decoy863], the Type entry is reported as “Inactive (Decoy)”.
For `CCCCN(C(=O)c1cccc(S(=O)(=O)N2CCN(C)CC2)c1)c1c(N)n(CCCC)c(=O)[nH]c1=O` [Decoy864], the Type entry is listed as “Inactive (Decoy)”.
Turning to `O=c1ccn([C@@H]2O[C@H](CO[P@](=O)(O)O[P@@](=O)(O)O[C@H]3OC[C@@H](O)[C@H](O)[C@H]3O)[C@@H](O)[C@H]2O)c(=O)[nH]1` [Decoy865], the Type entry is “Inactive (Decoy)”.
For `CCOC(=O)C1=C(CN2CCN(CC(=O)Nc3cccc(F)c3)CC2)NC(=O)N[C@@H]1CC` [Decoy866], the Type entry was “Inactive (Decoy)”.
Turning to `CCN(CC)S(=O)(=O)c1ccc(OC)c(NC(=O)COc2cc(C)ccc2C(N)=O)c1` [Decoy867], the Type result is recorded as “Inactive (Decoy)”.
As for `C[C@H]1CN(S(=O)(=O)c2ccc(C(=O)Nc3ccc(S(=O)(=O)Nc4nccs4)cc3)cc2)C[C@H](C)O1` [Decoy868], the Type entry is recorded as “Inactive (Decoy)”.
On to `CCOC(=O)c1ccc(NC(=O)CCN2C(=O)/C(=C3\SC(=S)N(CCC(=O)Nc4ccc(C(=O)OCC)cc4)C3=O)SC2=S)cc1` [Decoy869], for which the Type result was “Inactive (Decoy)”.
For the molecule `Cc1cccc(N(C(=O)c2snc(C(N)=O)c2N)[C@H](C(=O)NCCC(C)C)c2ccc(N(C)C)cc2)c1` [Decoy870], the Type result is given as “Inactive (Decoy)”.
As for `COc1cc(NC(=O)CCSc2nnc(N/N=C/c3c(O)ccc4ccccc34)n2N)cc(OC)c1` [Decoy871], the Type result is “Inactive (Decoy)”.
For `COC(=O)c1[nH]c(C)c(C(=O)C2=C(O)C(=O)N(CCN3CCOCC3)[C@@H]2c2cc(OC)c(OC)c(OC)c2)c1C` [Decoy872], the Type result is on record as “Inactive (Decoy)”.
`COC(=O)c1[nH]c(C)c(C(=O)C2=C(O)C(=O)N(CCN3CCOCC3)[C@H]2c2cc(OC)c(OC)c(OC)c2)c1C` [Decoy873]: the Type result is “Inactive (Decoy)”.
On to `CC(C)N(C(=O)c1ccc(C(=O)Nc2cccc(NC(=O)c3ccc(C(=O)N(C(C)C)C(C)C)cc3)n2)cc1)C(C)C` [Decoy874], for which the Type result was “Inactive (Decoy)”.
In the case of `CC(=C\C(=O)O)/C=C(\C)C[C@@H](C)CCCC[C@@H](O)[C@@H](CO)C(=O)OC[C@H]1O[C@@H](O)[C@@H](O)[C@@H](O)[C@H]1O` [Decoy875], the Type entry is “Inactive (Decoy)”.
As for `CC(=C\C(=O)O)/C=C(\C)C[C@@H](C)CCCC[C@H](O)[C@@H](CO)C(=O)OC[C@H]1O[C@@H](O)[C@@H](O)[C@@H](O)[C@H]1O` [Decoy876], the Type result was “Inactive (Decoy)”.
As for `CCN(CC)c1ccc(/C=N/Nc2nnc(SCC(=O)Nc3ccc(OC)cc3OC)n2N)c(O)c1` [Decoy877], the Type result is reported as “Inactive (Decoy)”.
Consider `O[C@@H](CNCCOc1ccccc1OCCNC[C@H](O)COc1cccc2[nH]c3ccccc3c12)COc1cccc2[nH]c3ccccc3c12` [Decoy878], for which the Type result is listed as “Inactive (Decoy)”.
For the molecule `N[C@@H](CCC(=O)N[C@@H](CSCCN(CCSC[C@H](NC(=O)CC[C@H](N)C(=O)O)C(=O)NCC(=O)O)[P@](N)(=O)O)C(=O)NCC(=O)O)C(=O)O` [Decoy879], the Type result was “Inactive (Decoy)”.
As to `CC(=O)OC[C@@H]1O[C@@H](Oc2cc(O)cc(O)c2C(=O)CCc2ccc([N+](=O)[O-])cc2)[C@@H](OC(C)=O)[C@H](OC(C)=O)[C@H]1OC(C)=O` [Decoy880], the Type result is “Inactive (Decoy)”.
As for `CC(=O)OC[C@H]1O[C@@H](Oc2cc(O)cc(O)c2C(=O)CCc2ccc([N+](=O)[O-])cc2)[C@@H](OC(C)=O)[C@H](OC(C)=O)[C@H]1OC(C)=O` [Decoy881], the Type result was “Inactive (Decoy)”.
Turning to `O=C(O)CN(CC(=O)O)C[C@@H](Cc1ccc(NCCCCCN2C(=O)C=CC2=O)cc1)N(CC(=O)O)CC(=O)O` [Decoy882], the Type entry is “Inactive (Decoy)”.
Turning to `CO[C@@H]1[C@@H](OC(N)=O)[C@H](O)[C@@H](Oc2ccc3c(O)c(NC(=O)c4ccc(O)c(CC=C(C)C)c4)c(=O)oc3c2C)OC1(C)C` [Decoy883], the Type entry is on record as “Inactive (Decoy)”.
Consider `COc1cc(NC(=S)Nc2ccc(S(=O)(=O)/N=c3/cc(OC)nc(OC)[nH]3)cc2)cc(OC)c1` [Decoy884], for which the Type entry is on record as “Inactive (Decoy)”.
Take `CC(=O)O[C@@H]1[C@@H](O)[C@@H](O[C@@H](C/N=C/c2c(O)ccc3ccccc23)[C@@H](CO)O[C@H](O)C/N=C/c2c(O)ccc3ccccc23)O[C@@H](CO)[C@H]1O` [Decoy885]: the Type result is on record as “Inactive (Decoy)”.
With `O=C(OC[C@@H]1O[C@H](Oc2ccc(O)cc2COC(=O)[C@@]2(O)[C@@H](O)CCC(=O)[C@@H]2O)[C@H](OC(=O)[C@H]2C=CCC2)[C@H](O)[C@@H]1O)[C@H]1C=CCC1` [Decoy886], the Type entry is recorded as “Inactive (Decoy)”.
As to `COc1cc(/C(C)=N/NC(=O)c2nnn(-c3nonc3N)c2COc2ccc(F)cc2)ccc1OCc1ccc(Cl)cc1` [Decoy887], the Type entry is given as “Inactive (Decoy)”.
Take `COc1ccc(C(OC[C@H]2O[C@H](Oc3ccc([N+](=O)[O-])cc3)[C@@H](O)[C@@H](O)[C@@H]2O)(c2ccccc2)c2ccc(OC)cc2)cc1` [Decoy888]: the Type result was “Inactive (Decoy)”.
Turning to `C[n+]1c(N[N-]S(=O)(=O)c2cccc(C(=O)NC(C)(C)CC(C)(C)CC(C)(C)C)c2)sc2ccc(S(=O)(=O)C(F)F)cc21` [Decoy889], the Type result was “Inactive (Decoy)”.
For the molecule `CCN(CC)S(=O)(=O)c1ccc(NC(=O)CSc2n[nH]c(N/N=C/c3ccccc3F)n2)cc1` [Decoy890], the Type entry is “Inactive (Decoy)”.
Regarding `O=C(O)CCNS(=O)(=O)c1ccc(NCCc2ccc(C(F)(F)F)cc2)c([N+](=O)[O-])c1` [Decoy891], the Type result is “Inactive (Decoy)”.
`O=C(O)C[C@H](NS(=O)(=O)c1cc(S(=O)(=O)N[C@H](CC(=O)O)c2ccccc2)c2cccc3c2c1NC3=O)c1ccccc1` [Decoy892]: the Type result is recorded as “Inactive (Decoy)”.
As to `O=C(O)C[C@H](NS(=O)(=O)c1cc(S(=O)(=O)N[C@@H](CC(=O)O)c2ccccc2)c2cccc3c2c1NC3=O)c1ccccc1` [Decoy893], the Type result is given as “Inactive (Decoy)”.
For `CN(CCO)c1ccc(/C=N\Nc2ccc(S(=O)(=O)Nc3ccccc3C(=O)O)cc2[N+](=O)[O-])cc1` [Decoy894], the Type entry was “Inactive (Decoy)”.
